Laboratory results published in ChEMBL document CHEMBL6153059, “Discovery of a Potent Triazole-Based Reversible Targeted Covalent Inhibitor of Cruzipain” (ACS Med Chem Lett, 2025).
The source made the active and inactive calls. No cut-off for these calls is given here.

What was measured:
[1] = target: Cruzipain (Trypanosoma cruzi) (UniProt P25779); assay: Inhibition of Trypanosoma cruzi cruzain at 100 uM using Z-FR-AMC as substrate preincubated for 10 mins followed by substrate addition and measured every 5 secs for 10 mins by fluorimetry; settings: time 20.0 min
[2] = target: Cruzipain (Trypanosoma cruzi) (UniProt P25779); assay: Inhibition of Trypanosoma cruzi cruzain at 100 uM using Z-FR-AMC as substrate measured every 5 secs for 10 mins by fluorimetry
Cruzipain = Cruzipain (Trypanosoma cruzi, UniProt P25779); assay: Inhibition of Trypanosoma cruzi cruzain using Z-FR-AMC as substrate preincubated for 10 mins followed by substrate addition and measured every 5 secs for 10 mins by fluorimetry
[3] = Dissociation constant, pKa of the compound for carboxyl group by potentiometric titration analysis; assay type: physicochemical
cathepsin L = cathepsin L (Homo sapiens, UniProt P07711); assay: Inhibition of recombinant human cathepsin L expressed in FreeStyle 293-F cells using Z-FR-AMC as substrate at 100 uM preincubated for 10 mins followed by substrate addition and measured for 20 mins by fluorimetry; settings: probe Z-FR-AMC, time 30 min
Trypanosoma cruzi [4] = assay: Antitrypanosomal activity against Trypanosoma cruzi Tulahuen trypomastigotes expressing Escherichia coli beta-galactosidase infected in African green monkey Vero cells incubated for 72 hrs by ONPG dye based microplate reader analysis; assay type: functional, organism-based
[5] = Dissociation constant, pKa of the compound for secondary ammonium by potentiometric titration analysis; assay type: physicochemical
Trypanosoma cruzi [6] = assay: Antitrypanosomal activity against Trypanosoma cruzi Tulahuen trypomastigotes expressing Escherichia coli beta-galactosidase infected in African green monkey Vero cells at 50 uM incubated for 72 hrs by ONPG dye based microplate reader analysis; assay type: functional
[7] = Cytotoxicity against African green monkey Vero cells assessed as cell viability at 50 uM incubated for 96 hrs by resazurin dye based fluorescence analysis relative to control; assay type: toxicity; settings: chlorocebus sabaeus, read-out: Activity
[8] = target: Cruzipain (Trypanosoma cruzi) (UniProt P25779); assay: Covalent reversible inhibition of Trypanosoma cruzi cruzain using Z-FR-AMC as substrate at 0.1XIC50 and measured at 10 mins post-dilution by jump dilution assay
[9] = target: Cruzipain (Trypanosoma cruzi) (UniProt P25779); assay: Covalent reversible inhibition of Trypanosoma cruzi cruzain assessed as recovery of enzyme activity using Z-FR-AMC as substrate at 0.1XIC50 and measured for 2 hrs by jump dilution assay
Trypanosoma cruzi [10] = assay: Antitrypanosomal activity against Trypanosoma cruzi Tulahuen trypomastigotes expressing Escherichia coli beta-galactosidase infected in African green monkey Vero cells at 10 uM incubated for 72 hrs by ONPG dye based microplate reader analysis; assay type: functional

Chain of Cruzipain (Trypanosoma cruzi) (P25779 123-467 limits assumed): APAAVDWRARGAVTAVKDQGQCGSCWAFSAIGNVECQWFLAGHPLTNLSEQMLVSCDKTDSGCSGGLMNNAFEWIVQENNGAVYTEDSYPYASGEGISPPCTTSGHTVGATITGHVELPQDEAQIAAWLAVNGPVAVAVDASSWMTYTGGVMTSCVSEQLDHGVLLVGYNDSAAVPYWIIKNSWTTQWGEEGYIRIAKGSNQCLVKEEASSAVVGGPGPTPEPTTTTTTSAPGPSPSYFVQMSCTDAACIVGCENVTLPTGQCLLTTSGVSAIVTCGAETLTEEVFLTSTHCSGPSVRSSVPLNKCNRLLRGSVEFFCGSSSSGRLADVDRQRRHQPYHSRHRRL
Chain of cathepsin L (P07711 whole entry): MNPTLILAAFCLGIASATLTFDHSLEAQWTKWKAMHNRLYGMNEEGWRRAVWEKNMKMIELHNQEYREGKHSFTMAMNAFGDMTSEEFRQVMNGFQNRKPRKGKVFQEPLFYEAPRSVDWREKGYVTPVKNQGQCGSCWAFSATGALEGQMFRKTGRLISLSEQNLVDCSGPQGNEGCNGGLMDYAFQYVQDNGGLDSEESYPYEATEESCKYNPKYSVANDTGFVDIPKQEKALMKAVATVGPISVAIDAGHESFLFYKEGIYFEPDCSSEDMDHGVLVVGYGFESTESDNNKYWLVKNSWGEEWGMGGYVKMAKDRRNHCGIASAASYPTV
Chain of Cruzipain (P25779 whole entry): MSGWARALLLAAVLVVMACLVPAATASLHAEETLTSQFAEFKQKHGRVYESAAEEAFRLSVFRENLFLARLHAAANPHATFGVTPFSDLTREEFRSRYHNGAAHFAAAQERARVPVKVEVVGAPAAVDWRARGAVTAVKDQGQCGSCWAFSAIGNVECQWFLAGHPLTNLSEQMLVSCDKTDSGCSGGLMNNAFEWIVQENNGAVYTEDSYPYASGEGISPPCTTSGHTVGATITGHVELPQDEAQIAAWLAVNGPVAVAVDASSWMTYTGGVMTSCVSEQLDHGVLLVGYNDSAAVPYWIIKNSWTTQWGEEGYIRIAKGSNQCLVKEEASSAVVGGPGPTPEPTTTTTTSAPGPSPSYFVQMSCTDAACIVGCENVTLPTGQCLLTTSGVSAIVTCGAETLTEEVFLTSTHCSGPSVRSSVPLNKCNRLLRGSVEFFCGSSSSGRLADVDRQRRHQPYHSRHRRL

| inhibition [1] | inhibition [2] | IC50 (Cruzipain) | Structure (SMILES) | inhibition at 20 min, 100 µM (cathepsin L) | further results |
| --- | --- | --- | --- | --- | --- |
| 43% | 6% | – | CC(C)[C@H](CS)n1cc(C(NCc2ccc3c(c2)OCO3)C2CCCCC2)nn1 (stereo partly drawn) | – | – |
| – | – | 6 µM | O=C(O)[C@H](CSC(c1ccccc1)(c1ccccc1)c1ccccc1)n1cc(C(NCc2ccc3c(c2)OCO3)C2CCCCC2)nn1 (stereo partly drawn) | 100% | pKa [3]: 3 |
| 53% | 6% | – | COC(=O)[C@H](CS)n1cc(C(NCc2ccc3c(c2)OCO3)C2CCCCC2)nn1 (stereo partly drawn) | – | – |
| – | – | 3.3 µM | NCCCC[C@@H](C=O)n1cc(C(NCc2ccc3c(c2)OCO3)C2CCCCC2)nn1 (stereo partly drawn) | – | IC50 (Trypanosoma cruzi [4]): 3.2 µM |
| 79% | 12% | 7 µM | SC[C@@H](Cc1ccccc1)n1cc(C(NCc2ccc3c(c2)OCO3)C2CCCCC2)nn1 (stereo partly drawn) | 0% | – |
| 100% | 13% | 0.028 µM | O=C(O)[C@H](CS)n1cc(C(NCc2ccc3c(c2)OCO3)C2CCCCC2)nn1 (stereo partly drawn) | 0% | pKa [5]: 8.1; IC50 (Trypanosoma cruzi [4]): 6.67 µM; inhibition at 50 µM (Trypanosoma cruzi [6]): 98%; viability at 96 h, 50 µM [7]: 80%; pKa [3]: 4; inhibition [8]: inactive; inhibition [9]: Active; inhibition at 10 µM (Trypanosoma cruzi [10]): 76% |
| 28% | – | – | COc1ccc(COC(=O)[C@H](CS)n2cc(C(NCc3ccc4c(c3)OCO4)C3CCCCC3)nn2)cc1 (stereo partly drawn) | – | – |
| 46% | 3% | – | CCOC(=O)[C@H](CS)n1cc(C(NCc2ccc3c(c2)OCO3)C2CCCCC2)nn1 (stereo partly drawn) | – | – |
